Measurements published in the NIST ThermoML archive (doi:10.1016/j.jct.2019.03.007).
Numbers after ± are expanded uncertainties.

Test: molar heat capacity at constant pressure
Conditions: 101.33 kPa, Crystal 1, DSC

O=[N+]([O-])[O-].O=[N+]([O-])[O-].[Ca+2] [calcium nitrate]
Conditions	molar heat capacity at constant pressure [J/K/mol]
361.78 K	152.56 ± 11
362.18 K	160.28 ± 11
362.78 K	152.75 ± 11
363.18 K	160.44 ± 11
363.78 K	152.95 ± 11
364.18 K	160.63 ± 11
364.78 K	153.15 ± 11
365.18 K	160.81 ± 11
365.78 K	153.35 ± 11
366.18 K	161.02 ± 11
366.78 K	153.54 ± 11
367.18 K	161.17 ± 11
367.78 K	153.74 ± 11
368.18 K	161.33 ± 11
368.78 K	153.94 ± 11
369.18 K	161.53 ± 11
369.78 K	154.14 ± 11
370.18 K	161.7 ± 11
370.78 K	154.34 ± 11
371.18 K	161.95 ± 11
371.78 K	154.54 ± 11
372.18 K	162.09 ± 11
372.78 K	154.75 ± 11
373.18 K	162.29 ± 11
373.78 K	154.94 ± 11
374.18 K	162.35 ± 11
374.78 K	155.12 ± 11
375.18 K	162.54 ± 11
375.78 K	155.3 ± 11
376.18 K	162.75 ± 11
376.78 K	155.47 ± 11
377.18 K	162.97 ± 11
377.78 K	155.64 ± 11
378.18 K	163.18 ± 11
378.78 K	155.81 ± 11
379.18 K	163.4 ± 11
379.78 K	155.97 ± 11
380.18 K	163.62 ± 11
380.78 K	156.14 ± 11
381.18 K	163.84 ± 11
381.78 K	156.31 ± 11
382.18 K	164.05 ± 11
382.78 K	156.48 ± 11
383.18 K	164.32 ± 11
383.78 K	156.65 ± 11
384.18 K	164.57 ± 11
384.78 K	156.82 ± 11
385.18 K	164.8 ± 12
385.78 K	156.99 ± 11
386.18 K	164.98 ± 12
386.78 K	157.16 ± 11
387.18 K	165.18 ± 12
387.78 K	157.33 ± 11
388.18 K	165.31 ± 12
388.78 K	157.5 ± 11
389.18 K	165.47 ± 12
389.78 K	157.67 ± 11
390.18 K	165.67 ± 12
390.78 K	157.83 ± 11
391.18 K	165.88 ± 12
391.78 K	158 ± 11
392.18 K	166.07 ± 12
392.78 K	158.17 ± 11
393.18 K	166.27 ± 12
393.78 K	158.34 ± 11
394.18 K	166.46 ± 12
394.78 K	158.51 ± 11
395.18 K	166.6 ± 12
395.78 K	158.68 ± 11
396.18 K	166.74 ± 12
396.78 K	158.86 ± 11
397.18 K	166.86 ± 12
397.78 K	159.03 ± 11
398.18 K	167.03 ± 12
398.78 K	159.2 ± 11
399.18 K	167.15 ± 12
399.78 K	159.38 ± 11
400.18 K	167.33 ± 12
400.78 K	159.54 ± 11
401.18 K	167.43 ± 12
401.78 K	159.71 ± 11
402.18 K	167.63 ± 12
402.78 K	159.87 ± 11
403 K	160.69 ± 11
403.18 K	167.77 ± 12
403.78 K	160.04 ± 11
404 K	160.78 ± 11
404.18 K	167.98 ± 12
404.78 K	160.23 ± 11
405 K	161.04 ± 11
405.18 K	168.21 ± 12
405.78 K	160.41 ± 11
406 K	160.25 ± 11
406.18 K	168.41 ± 12
406.78 K	160.58 ± 11
407 K	160.32 ± 11
407.18 K	168.63 ± 12
407.78 K	160.76 ± 11
408 K	160.3 ± 11
408.18 K	168.88 ± 12
408.78 K	160.93 ± 11
409 K	160.49 ± 11
409.18 K	169.09 ± 12
409.78 K	161.1 ± 11
410 K	161.08 ± 11
410.18 K	169.35 ± 12
410.78 K	161.27 ± 11
411 K	160.76 ± 11
411.18 K	169.49 ± 12
411.78 K	161.44 ± 11
412 K	160.92 ± 11
412.18 K	169.72 ± 12
412.78 K	161.61 ± 11
413 K	161.04 ± 11
413.18 K	169.84 ± 12
413.78 K	161.77 ± 11
414 K	161.26 ± 11
414.18 K	170.06 ± 12
414.78 K	161.94 ± 11
415 K	161.41 ± 11
415.18 K	170.21 ± 12
415.78 K	162.11 ± 11
416 K	161.42 ± 11
416.18 K	170.45 ± 12
416.78 K	162.27 ± 11
417 K	161.52 ± 11
417.18 K	170.58 ± 12
417.78 K	162.43 ± 11
418 K	161.73 ± 11
418.18 K	170.76 ± 12
418.78 K	162.59 ± 11
419 K	162.11 ± 11
419.18 K	170.93 ± 12
419.78 K	162.75 ± 11
420 K	162.15 ± 11
420.18 K	171.07 ± 12
420.78 K	162.91 ± 11
421 K	162.33 ± 11
421.18 K	171.17 ± 12
421.78 K	163.06 ± 11
422 K	162.71 ± 11
422.18 K	171.32 ± 12
422.78 K	163.22 ± 11
423 K	162.96 ± 11
423.18 K	171.45 ± 12
423.78 K	163.38 ± 11
424 K	163.14 ± 11
424.18 K	171.55 ± 12
424.78 K	163.54 ± 11
425 K	163.33 ± 11
425.18 K	171.73 ± 12
425.78 K	163.69 ± 11
426 K	163.37 ± 11
426.18 K	171.87 ± 12
426.78 K	163.85 ± 11
427 K	163.76 ± 11
427.18 K	172.05 ± 12
427.78 K	164.01 ± 11
428 K	163.77 ± 11
428.18 K	172.26 ± 12
428.78 K	164.17 ± 11
429 K	163.7 ± 11
429.18 K	172.5 ± 12
429.78 K	164.33 ± 11
430 K	163.8 ± 11
430.18 K	172.74 ± 12
430.78 K	164.49 ± 11
431 K	163.76 ± 11
431.18 K	173.01 ± 12
431.78 K	164.65 ± 11
432 K	163.92 ± 11
432.18 K	173.21 ± 12
432.78 K	164.81 ± 11
433 K	164.38 ± 11
433.18 K	173.43 ± 12
433.78 K	164.96 ± 12
434 K	164.69 ± 11
434.18 K	173.63 ± 12
434.78 K	165.13 ± 12
435 K	164.65 ± 11
435.18 K	173.82 ± 12
435.78 K	165.29 ± 12
436 K	164.7 ± 11
436.18 K	174.04 ± 12
436.78 K	165.45 ± 12
437 K	164.8 ± 12
437.18 K	174.21 ± 12
437.78 K	165.61 ± 12
438 K	165.07 ± 12
438.18 K	174.35 ± 12
438.78 K	165.77 ± 12
439 K	165.44 ± 12
439.18 K	174.62 ± 12
439.78 K	165.93 ± 12
440 K	165.84 ± 12
440.18 K	174.82 ± 12
440.78 K	166.09 ± 12
441 K	165.74 ± 12
441.18 K	175.02 ± 12
441.78 K	166.26 ± 12
442 K	165.94 ± 12
442.18 K	175.16 ± 12
442.78 K	166.42 ± 12
443 K	166.4 ± 12
443.18 K	175.33 ± 12
443.78 K	166.58 ± 12
444 K	166.4 ± 12
444.18 K	175.47 ± 12
444.78 K	166.75 ± 12
445 K	166.55 ± 12
445.18 K	175.65 ± 12
445.78 K	166.92 ± 12
446 K	166.46 ± 12
446.18 K	175.77 ± 12
446.78 K	167.08 ± 12
447 K	166.39 ± 12
447.18 K	175.94 ± 12
447.78 K	167.25 ± 12
448 K	166.47 ± 12
448.18 K	176.08 ± 12
448.78 K	167.41 ± 12
449 K	166.51 ± 12
449.18 K	176.2 ± 12
449.78 K	167.57 ± 12
450 K	166.69 ± 12
450.18 K	176.36 ± 12
450.78 K	167.73 ± 12
451 K	166.81 ± 12
451.18 K	176.52 ± 12
451.78 K	167.88 ± 12
452 K	166.99 ± 12
452.18 K	176.72 ± 12
452.78 K	168.04 ± 12
453 K	167.12 ± 12
453.18 K	176.94 ± 12
453.78 K	168.19 ± 12
454 K	167.19 ± 12
454.18 K	177.19 ± 12
454.78 K	168.34 ± 12
455 K	167.39 ± 12
455.18 K	177.36 ± 12
455.78 K	168.49 ± 12
456 K	167.61 ± 12
456.18 K	177.51 ± 12
456.78 K	168.64 ± 12
457 K	167.67 ± 12
457.18 K	177.68 ± 12
457.78 K	168.79 ± 12
458 K	167.76 ± 12
458.18 K	177.88 ± 12
458.78 K	168.94 ± 12
459 K	167.66 ± 12
459.18 K	178.01 ± 12
459.78 K	169.09 ± 12
460 K	167.65 ± 12
460.18 K	178.19 ± 12
